Laboratory results as given in ChEMBL document CHEMBL4837181 (Eur J Med Chem, 2020).
One block for each compound: values may come before it.

Legend:
[1] = Genotoxicity in rat; format: toxicity
[2] = Stability in mouse plasma assessed as parent compound remaining measured after 2 hrs by LC-MS/MS analysis; format: ADME, cell-free; conditions: read-out: Stabilty
[3] = Lipophilicity, logP of the compound; format: physicochemical; conditions: octanol/water
[4] = Chemical stability of compound in saline assessed as compound remaining at 5 uM measured after 24 hrs by LC-MS/MS analysis; format: physicochemical; conditions: read-out: Stabilty
[5] = Drug metabolism in cynomolgus monkey hepatocytes assessed as unmetabolized compound at 10 uM incubated for 120 mins by UPLC-QTOF-PDA analysis; format: ADME, cell-based, Macaca fascicularis, Hepatocyte; conditions: read-out: Drug metabolism
[6] = Drug metabolism in rats assessed as ratio of indoximod to parent compound at 20 to 900 mg/kg, po administered as single dose; format: ADME, organism-based; conditions: rat, in vivo, dose 20-900 mg/kg
[7] = Dissociation constant, pKa of the compound; format: physicochemical
[8] = Drug metabolism in cynomolgus monkey assessed as indoximod formation of by measuring indoximod Tmax at 15 mg/kg, iv administered as single dose; format: ADME, organism-based, Macaca fascicularis; conditions: in vivo
[9] = Tmax in female cynomolgus monkey at 75 mg/kg, po measured on day 1; format: ADME, organism-based, Macaca fascicularis; conditions: in vivo
Cytochrome P450 3A4 = Cytochrome P450 3A4 (Homo sapiens, UniProt P08684); assay: Induction of CYP3A4 in human hepatocytes; format: ADME, cell-based, Hepatocyte
[10] = Protein binding in cynomolgus monkey plasma; format: ADME, cell-free, Macaca fascicularis; conditions: read-out: PPB
Cytochrome P450 2C8 = molecular target: T1, Cytochrome P450 2C8 (Homo sapiens, UniProt P10632); assay: Inhibition of CYP2C8 in human hepatocytes; format: ADME, cell-based, Hepatocyte
T1 sequence (P10632 whole entry): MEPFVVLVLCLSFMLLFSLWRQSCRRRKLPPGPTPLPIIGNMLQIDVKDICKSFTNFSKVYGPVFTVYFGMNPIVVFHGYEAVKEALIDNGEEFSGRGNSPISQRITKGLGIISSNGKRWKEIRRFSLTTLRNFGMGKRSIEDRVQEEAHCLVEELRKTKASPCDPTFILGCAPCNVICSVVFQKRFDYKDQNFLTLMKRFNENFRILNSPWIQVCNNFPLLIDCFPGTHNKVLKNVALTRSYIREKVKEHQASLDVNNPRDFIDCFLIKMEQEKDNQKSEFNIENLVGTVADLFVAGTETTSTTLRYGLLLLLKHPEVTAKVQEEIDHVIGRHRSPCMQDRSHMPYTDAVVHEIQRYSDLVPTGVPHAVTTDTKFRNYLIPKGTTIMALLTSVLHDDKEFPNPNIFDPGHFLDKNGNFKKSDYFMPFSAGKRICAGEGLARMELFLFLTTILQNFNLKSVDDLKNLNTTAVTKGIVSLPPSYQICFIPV

[11] = Drug metabolism in cynomolgus monkey assessed as formation of M9 metabolite at 75 to 675 mg/kg, po administered as single dose; format: ADME, organism-based, Macaca fascicularis; conditions: in vivo, dose 75-675 mg/kg
[12] = Toxicity in rat assessed as abnormal respiratory sounds at 150 to 180 mg/kg, po; format: organism-based; conditions: in vivo, dose 150-180 mg/kg
[13] = Toxicity in po BID rat assessed as NOAEL; format: organism-based; conditions: in vivo
[14] = Cmax in male rat at 150 mg/kg, po BID measured on day 28; format: ADME, organism-based; set-up: route oral, dose 150 mg/kg; conditions: in vivo
[15] = Drug metabolism in rat assessed as indoximod formation by measuring indoximod Tmax at 20 to 900 mg/kg; format: ADME, organism-based; conditions: in vivo, dose 20-900 mg/kg
Cytochrome P450 2B6 = molecular target: T2, Cytochrome P450 2B6 (Homo sapiens, UniProt P20813); assay: Inhibition of CYP2B6 in human hepatocytes; format: ADME, cell-based, Hepatocyte
T2 sequence (P20813 whole entry): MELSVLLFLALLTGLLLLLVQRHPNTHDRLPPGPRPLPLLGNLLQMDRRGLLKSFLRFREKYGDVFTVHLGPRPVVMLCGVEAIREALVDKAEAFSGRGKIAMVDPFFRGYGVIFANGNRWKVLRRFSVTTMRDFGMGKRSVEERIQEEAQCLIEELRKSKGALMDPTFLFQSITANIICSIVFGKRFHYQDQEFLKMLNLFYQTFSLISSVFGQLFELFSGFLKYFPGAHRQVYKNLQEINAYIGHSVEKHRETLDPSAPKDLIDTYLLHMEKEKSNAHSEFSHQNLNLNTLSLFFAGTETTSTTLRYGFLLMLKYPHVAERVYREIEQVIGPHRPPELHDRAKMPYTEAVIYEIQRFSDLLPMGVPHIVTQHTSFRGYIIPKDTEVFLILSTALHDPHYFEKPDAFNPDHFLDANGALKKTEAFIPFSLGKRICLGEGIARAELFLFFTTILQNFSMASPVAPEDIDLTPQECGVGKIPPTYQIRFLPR

[16] = Drug metabolism in rats assessed as formation of M9 metabolite at 20 to 900 mg/kg; format: ADME, organism-based; conditions: rat, in vivo; dose 20-900 mg/kg
[17] = Toxicity in rat assessed as mortality at 150 to 180 mg/kg, po; format: organism-based; conditions: in vivo, dose 150-180 mg/kg
[18] = Toxicity in monkey assessed as change in respiratory parameter; set-up: species or system Macaca mulatta; conditions: rhesus monkey, in vivo
Cytochrome P450 1A2 = molecular target: T3, Cytochrome P450 1A2 (Homo sapiens, UniProt P05177); assay: Inhibition of CYP1A2 in human hepatocytes; format: ADME, cell-based, Hepatocyte
T3 sequence (P05177 whole entry): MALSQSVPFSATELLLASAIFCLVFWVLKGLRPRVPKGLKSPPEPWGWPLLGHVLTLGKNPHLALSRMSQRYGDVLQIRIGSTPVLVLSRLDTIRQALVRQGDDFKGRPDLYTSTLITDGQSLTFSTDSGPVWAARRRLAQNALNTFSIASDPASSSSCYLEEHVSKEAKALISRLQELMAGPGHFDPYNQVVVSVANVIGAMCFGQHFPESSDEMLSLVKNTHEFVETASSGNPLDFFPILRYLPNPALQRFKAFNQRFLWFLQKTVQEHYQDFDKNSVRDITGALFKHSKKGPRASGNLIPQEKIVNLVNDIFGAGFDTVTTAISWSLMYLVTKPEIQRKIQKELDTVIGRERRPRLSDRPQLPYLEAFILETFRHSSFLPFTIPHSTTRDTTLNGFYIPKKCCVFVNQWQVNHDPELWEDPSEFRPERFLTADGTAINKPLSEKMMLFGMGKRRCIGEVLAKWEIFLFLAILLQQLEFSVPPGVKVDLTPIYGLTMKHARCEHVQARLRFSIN

[19] = Volume of distribution in male cynomolgus monkey at 15 mg/kg, iv measured on day 1; format: ADME, organism-based, Macaca fascicularis; conditions: in vivo
[20] = AUC (0 to 12 hrs) in male rat at 150 mg/kg, po BID measured on day 28; format: ADME, organism-based; set-up: time < 12 hr, route oral, dose 150 mg/kg; conditions: in vivo
[21] = Cmax in mouse at 250 mg/kg administered bid; format: ADME, organism-based; set-up: dose 250 mg/kg; conditions: in vivo
[22] = AUC (0 to 24 hrs) in female cynomolgus monkey at 225 mg/kg, po measured on day 1; format: ADME, organism-based, Macaca fascicularis; set-up: time < 24 hr, route oral, dose 225 mg/kg; conditions: in vivo
[23] = Cmax in mouse at 62 mg/kg administered bid; format: ADME, organism-based; set-up: dose 62 mg/kg; conditions: in vivo
[24] = Half life in female cynomolgus monkey at 15 mg/kg, iv measured on day 1; format: ADME, organism-based, Macaca fascicularis; conditions: in vivo
[25] = Half life in mouse at 20 to 900 mg/kg, po; format: ADME, organism-based; conditions: in vivo, dose 20-900 mg/kg
[26] = AUC (0 to 24 hrs) in male cynomolgus monkey at 75 mg/kg, po measured on day 1; format: ADME, organism-based, Macaca fascicularis; set-up: time < 24 hr, route oral, dose 75 mg/kg; conditions: in vivo

Sequence of Cytochrome P450 3A4 (P08684 whole entry): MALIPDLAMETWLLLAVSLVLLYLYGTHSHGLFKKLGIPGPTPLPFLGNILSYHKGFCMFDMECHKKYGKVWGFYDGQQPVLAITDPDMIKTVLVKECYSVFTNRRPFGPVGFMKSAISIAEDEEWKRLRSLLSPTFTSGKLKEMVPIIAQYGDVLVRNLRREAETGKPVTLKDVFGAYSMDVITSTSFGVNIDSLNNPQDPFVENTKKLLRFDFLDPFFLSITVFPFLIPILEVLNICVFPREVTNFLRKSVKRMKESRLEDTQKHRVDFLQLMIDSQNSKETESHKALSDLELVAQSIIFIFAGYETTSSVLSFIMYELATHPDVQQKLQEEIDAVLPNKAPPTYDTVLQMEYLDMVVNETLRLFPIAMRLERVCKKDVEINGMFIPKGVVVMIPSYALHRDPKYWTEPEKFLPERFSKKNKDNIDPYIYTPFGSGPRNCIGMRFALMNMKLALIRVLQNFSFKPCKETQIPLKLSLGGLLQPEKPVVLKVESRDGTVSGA

SMILES: CCOC(=O)[C@@H](Cc1cn(C)c2ccccc12)NC(=O)[C@@H](N)CC(C)C.Cl
- Activity [1]: Non-Toxic
- remaining at 2 h [2]: 0%
- logP [3]: 2.6
- remaining at 24 h, 5 µM [4]: 87%
- remaining at 2 h, 10 µM [5]: 1.3%
- Ratio [6]: > 39000
- pKa [7]: 7.76
- Tmax [8]: 1 h
- Tmax [9]: 2 h
- Activity (Cytochrome P450 3A4): Not Active
- fraction unbound [10]: 0.5
- IC50 (Cytochrome P450 2C8): > 50 µM
- Drug metabolism [11]: Metabolite_Detected
- Activity [12]: Toxic
- NOAEL [13]: 60 mg/kg
- Cmax [14]: 169 µM
- Tmax [15]: 1 h
- IC50 (Cytochrome P450 2B6): > 50 µM
- Drug metabolism [16]: Metabolite_Detected
- Activity [17]: Toxic
- Activity [18]: Non-Toxic
- IC50 (Cytochrome P450 1A2): > 50 µM
- Vd [19]: 309 L/kg
- AUC at 12 h [20]: 1410 µM·h

- Cmax [21]: 50 µM
- AUC(0-t) at 24 h [22]: 181 µM·h
- Cmax [23]: > 16 µM
- half-life [24]: 1.5 h
- half-life [25]: 2.2 h
- AUC(0-t) at 24 h [26]: 223 µM·h
SMILES: Cn1cc(C[C@@H](N)C(=O)O)c2ccccc21 [INDOXIMOD]
